Assay results: patent US12280046B2, “Melanocortin subtype-2 receptor (MC2R) antagonist for the treatment of disease” (Crinetics Pharmaceuticals, Inc., priority 2021, dated 2025)

Assays:
sodium channel (site 2) = assay: SafetyScreen panel: sodium channel site 2; format: binding; conditions: 10 μM
Protocol: Compound 1 was tested at Eurofins Panlabs Discovery Services Taiwan, Ltd. for evaluation in their SafetyScreen™ panel of assays. This included selectivity assays at 87 targets including G-protein coupled receptors, nuclear receptors, other cell surface receptors, ion channels, enzymes, and transporters.

[1] = Single oral dose ACTH challenge test in rats; format: in vivo, rat; conditions: rat, in vivo, male rats, at minimum effective dose 3 mg/kg oral
Protocol: (§1) The pharmacodynamic (PD) effects of Compound 1 were examined in rat by evaluating suppression of the corticosterone (cortisol in humans) response induced by administration of ACTH.
(§2) The ability of a single oral dose of Compound 1 to suppress corticosterone over 2 hours in response to an ACTH challenge test was assessed in male and female rats. Acute, IV administration of 1 μg/kg ACTH(1-24) induced a robust rise in plasma corticosterone levels compared to baseline in male and female rats.

[2] = system: ACTH-stimulated corticosterone secretion; assay: Single oral dose ACTH challenge test in rats; format: in vivo, rat; conditions: for suppression of corticosterone: 1 μg/kg IV ACTH(1-24), vs vehicle
Protocol: as §1, §2

5-HT1B receptor = 5-HT1B receptor (Homo sapiens, UniProt P28222); assay: 5-HT1B functional dose response, agonist and antagonist modes; format: biochemical
Excerpt: The selectivity of Compound 1 for hMC2R over 5-HT1B is >2200-fold.

[3] = system: plasma corticosterone in mice with ACTH-secreting AtT-20 cell tumors; assay: ACTH-secreting AtT-20 mouse pituitary cell tumor model, 14 days of daily oral dosing; format: in vivo; conditions: for suppression of plasma corticosterone: 2 hours after last dose, vs vehicle
Protocol: The ability of 14 days of daily oral administration of Compound 1 to suppress corticosterone in a mouse model of ACTH excess was evaluated.
Briefly, female Balb/c nude mice were subcutaneously implanted with AtT-20 corticotroph tumor cells in the rear flank (3 million cells/injection/animal) on Day 0. The no-tumor (NT) control group was injected with media only. When tumors became palpable on Day 21, mice were assigned to groups randomized for body weight, and 0, 15, 30 or 100 mg/kg/day of Compound 1. Compound 1 was orally administered for 14 days (Day 21 to Day 34).

[4] = system: corticosterone and adrenal gland hypertrophy; assay: Continuous pump-administration of ACTH(1-24) in male rats, 7 days of daily oral dosing; format: in vivo, rat
Protocol: Exogenous ACTH(1-24) (100 μg/kg/day) was administered to male rats via subcutaneously implanted osmotic pumps. The ability of repeated daily oral administration of Compound 1 to suppress corticosterone over 7 days was evaluated.

[5] = Phase 1 SAD study, pharmacokinetics in healthy volunteers; format: in vivo, human
Excerpt: This Phase 1, first-in-human, double-blind, randomized, placebo-controlled study will evaluate the safety of Compound 1 in healthy volunteers as well as the relationship between exposure and pharmacodynamic (PD) parameters, including ACTH-stimulated and endogenous cortisol secretion measured in blood, saliva, and urine. Results will be used to inform endpoints and other parameters in future later studies in patients with Cushing's disease (CD) or other diseases of excess adrenocorticotropic hormone (ACTH), including Congenital Adrenal Hyperplasia (CAH) and Ectopic ACTH Syndrome (EAS).
SAD/Part 1: ascending single dose, randomized, placebo-controlled, double-blind; 5 planned and up to 8 total cohorts, n=64. In each cohort, 6 subjects will receive Compound 1, 2 subjects will receive the placebo. Doses will escalate from 10 mg in cohort 1 to no more than 250 mg.
Data shown are mean±SEM. All doses n=6. Cohort 4 (n=6, 80 mg) was evaluated in the high dose ACTH-stimulation test, while cohort 5 (n=6, 80 mg) was evaluated in the low dose ACTH-stimulation test.

MC3R = target: T1, MC3R (Homo sapiens, UniProt P41968); assay: Commercially available MC3R membrane binding assay; conditions: greater than highest concentration tested
T1 construct: purchased
Protocol: The selectivity over other human MCR subtypes was evaluated using commercially available MC1R, MC3R, MC4R, and MCSR membrane binding assays. The half maximal inhibitory concentration in the binding assays (IC50) were determined to be greater than the highest concentration tested, or >10,000 nM, >1000 nM, >10,000 nM and >1000 nM for MC1R, MC3R, MC4R and MCSR, respectively. Compound 1 is >2900-fold selective for MC2R versus the other human MCRs.

[6] = daily oral dosing over the course of the experiment

5-HT1B receptor, sequence (P28222 whole entry): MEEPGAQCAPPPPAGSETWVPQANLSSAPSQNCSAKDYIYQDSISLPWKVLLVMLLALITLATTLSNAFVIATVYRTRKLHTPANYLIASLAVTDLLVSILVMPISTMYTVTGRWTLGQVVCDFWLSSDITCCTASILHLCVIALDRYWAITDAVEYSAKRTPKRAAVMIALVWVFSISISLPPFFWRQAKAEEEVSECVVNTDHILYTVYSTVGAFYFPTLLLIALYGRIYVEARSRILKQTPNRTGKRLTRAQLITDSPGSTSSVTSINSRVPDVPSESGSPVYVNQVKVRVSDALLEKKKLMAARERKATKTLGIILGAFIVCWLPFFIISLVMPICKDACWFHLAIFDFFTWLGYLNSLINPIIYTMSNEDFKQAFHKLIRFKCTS
T1 sequence (P41968 whole entry): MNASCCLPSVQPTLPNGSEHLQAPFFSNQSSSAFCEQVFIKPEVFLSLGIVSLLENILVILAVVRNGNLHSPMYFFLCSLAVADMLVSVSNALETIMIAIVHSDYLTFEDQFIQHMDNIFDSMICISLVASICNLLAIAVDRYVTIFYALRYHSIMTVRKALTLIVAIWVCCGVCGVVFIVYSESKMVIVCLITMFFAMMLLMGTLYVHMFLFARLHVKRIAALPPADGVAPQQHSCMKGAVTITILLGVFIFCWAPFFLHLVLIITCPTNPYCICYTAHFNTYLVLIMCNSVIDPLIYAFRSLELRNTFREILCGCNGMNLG

SMILES: CCOc1ccccc1-c1ccc(N2CCN(C(=O)C3(C(F)(F)F)CCC3)C[C@H]2CC)c(C(=O)N[C@@H]2CN3CCC2CC3)n1 [Compound 1, 6-(2-ethoxyphenyl)-3-((R)-2-ethyl-4-(1-(trifluoromethyl)cyclobutane-1-carbonyl)piperazin-1-yl)-N—((S)-quinuclidin-3-yl)picolinamide]
- inhibition/activity (sodium channel (site 2)): > 70%
- Cmax [1]: 149 ng/mL
- AUC(0-t) ([1]; read-out: AUC up to the last measurable concentration (AUC0-t)): 1400 ng·h/mL
- suppression of corticosterone ([2]; female rats, 1 mg/kg oral): 51%
- suppression of corticosterone ([2]; female rats, 3 mg/kg oral): 71%
- suppression of corticosterone ([2]; female rats, 10 mg/kg oral): 88%
- dose with statistically significant suppression of corticosterone ([2]; female rats, oral): ≥ 1 mg/kg
- ACTH-stimulated corticosterone secretion ([2]; male and female rats, oral): dose-dependently suppressed
- suppression of corticosterone ([2]; male rats, 3 mg/kg oral): 62%
- suppression of corticosterone ([2]; male rats, 10 mg/kg oral): 78%
- dose with statistically significant suppression of corticosterone ([2]; male rats, oral): ≥ 3 mg/kg
- minimum effective dose ([2]; male rats, oral, 1 μg/kg ACTH-stimulated acute assay): 3 mg/kg
- selectivity for hMC2R over 5-HT1B (5-HT1B receptor): > 2200 fold
- agonistic activity (5-HT1B receptor; agonist mode, no signal up to 3000 nM): no agonistic activity
- IC50 (5-HT1B receptor; antagonist mode, read-out: antagonistic activity IC50): ~0.75 µM
- suppression of plasma corticosterone ([3]; 15 mg/kg/day): 73%
- suppression of plasma corticosterone ([3]; 30 mg/kg/day): 88%
- increase in ACTH levels ([3]; 100 mg/kg/day vs vehicle): 2.4 fold
- suppression of plasma corticosterone ([3]; 100 mg/kg/day): 92%
- body weight [3, 6]: no significant effect
- tumor volume [3, 6]: no significant effect
- adrenal gland hypertrophy (adrenal gland weight and adrenal cortical area) ([4]; 10 and 30 mg/kg/day vs vehicle): ameliorated adrenal gland hypertrophy
- corticosterone ([4]; ≥10 mg/kg/day, 1 hour post-dose on Day 1 and Day 7): dose-dependently suppressed
- Tmax ([5]; human, in vivo, single oral dose, at efficacious doses): ~1 h
- half-life ([5]; human, in vivo, single oral dose, healthy volunteers): ~24 h
- oral bioavailability / exposure ([5]; single ascending oral doses): oral bioavailability with dose-proportional exposure
- IC50 (MC3R): > 1 µM
